Data: patent US20260092315A1, “COMPOSITIONS AND METHODS FOR DISCOVERING GENE REGULATION” (UNIVERSITY OF UTAH RESEARCH FOUNDATION, priority 2022, published 2026)

Legend:
p53 protein = p53 protein level after Nutlin-3a treatment of HCT116 cells; type: cell-based; conditions: HCT116 cells (wildtype for TP53)
Source text: (§1) FIGS. 3A-3D show TRoUT-FISH positively identifies known mechanisms of gene regulation. Treatment with Nutlin-3a FIG. 3A) stabilizes p53 protein and FIG. 3B) induces CDKN1A transcription. FIG. 3C) FISH and flow cytometry detects drug induced changes in CDKN1A mRNA levels. FIG. 3D) MAGeCK analysis of Nutlin-3a TRoUT-FISH with CDKN1A as the elucidator. ****p<0.0001 T-test.
(§2) The small molecule Nutlin-3a, which inhibits the interaction between MDM2 and p53 and, in doing so, prevents the proteolytic degradation of p53 and permits activation of downstream targets such as CDKN1A, has been used. […] These changes were then assayed using FISH coupled with flow cytometry (FIG. 2). […] A CRISPR screen was performed in HCT116 cells stably expressing Cas9 with a small library targeting ˜1500 transcription factors, including ten sgRNAs against TP53. After acute selection, cells were treated with vehicle or Nutlin-3a and the transcript abundance of CDKN1A was determined by FISH. CDKN1Alow and CDKN1A high populations were sorted by flow cytometry (e.g. FACS), isolated genomic DNA, and sequenced sgRNAs (FIG. 2). This screen positively identified TP53 as the critical mediator of Nutlin-3a induced CDKN1A expression ([…]).

CDKN1A transcript = CDKN1A transcript after Nutlin-3a treatment of HCT116 cells; type: cell-based; conditions: HCT116 cells (wildtype for TP53)
Source text: as §1, §2

CDKN1A mRNA = test: FISH coupled with flow cytometry for CDKN1A mRNA in HCT116 cells; type: cell-based
Description: as §1
TRoUT-FISH is performed on bulk populations which sidesteps the cost and data sparsity issues common to single cell RNA-seq assays. As TRoUT-FISH experiments are performed without any genetic manipulations prior to CRISPR perturbations, the system is ideally positioned to integrate with other data, including ChIP-seq, ATAC-seq, and ENCODE resources. These other resources provide complementary mechanistic insight of gene regulation. Cells are infected at low MOI with virus encoding a CRISPR library selected based on antibiotic resistance. Cells are cultured for eight days to allow CRISPR editing to occur. […]
The small molecule Nutlin-3a, which inhibits the interaction between MDM2 and p53 and, in doing so, prevents the proteolytic degradation of p53 and permits activation of downstream targets such as CDKN1A, has been used. […] After acute selection, cells were treated with vehicle or Nutlin-3a and the transcript abundance of CDKN1A was determined by FISH. […]

CDKN1A RNA = test: MACAREL-FISH barcode recovery with CDKN1A as target RNA; type: cell-based; conditions: vehicle versus Nutlin-3a barcoded cells, FACS sorted
Source text: FIG. 11A-C show Method to Associate Compounds with Altered RNA levels via Fluorescent In Situ Hybridization (MACAREL-FISH). FIG. 11A) Schematic of MACAREL-FISH. FIG. 11B) Schematic of sorting strategy. Magenta boxes indicate the sorted population. Low and high populations were sorted from the Mix 50:50 population.
In brief, cells are arrayed in a 96 well plate (FIG. 11A). MACAREL-FISH is amenable to any cell type including: immortalized cancer cell lines, primary cells, patient cells, and organoids. Each well is incubated with a specific compound. Before, during, or after treatment cells are barcoded (FIG. 11A). Cells are then detached from the plate and fixed with paraformaldehyde (PFA) which locks cells in their current state. Cells are then pooled permeabilized and stained with a DNA dye and incubated overnight in hybridization buffer in the presence of specific DNA oligonucleotides that anneal to an RNA of interest. The DNA oligonucleotides are computationally designed genome-wide to ensure specificity for the elucidator. […] Based on the possible sequence space of barcodes and read length on NGS, this approach can be scaled almost ad infinitum.
Cells were treated with either vehicle control or the small molecule Nutlin-3a. […] After sorting, DNA was extracted and barcodes identity and abundance were measured by sequencing.

MYC protein = MYC protein level by immunoblot in K562 cells treated with JQ1; type: cell-based; conditions: 1 uM JQ1 for 6 h
Description: (§3) FIGS. 4A-4C show TRoUT-FISH identifies MYC and BRD4 as regulators of glycolysis. FIG. 4A) TRoUT-FISH data from ENO1 and PGK1 screens. B,C) K562 cells were treated with 1 uM JQ1 for 6 h. FIG. 4B) MYC protein level measured by immunoblot and FIG. 4C) transcripts measured by qPCR. **p<0.01, ****p<0.0001 T-test.
(§4) First, TRoUT-FISH experiments were performed assaying the regulation of ENO1 and PGK1 in K562 cells (FIG. 4A). […] MYC is a well-characterized activator of glycolytic gene expression, and as such served as an internal positive control. BRD4 is a member of the bromodomain and extraterminal domain (BET) family of proteins and is known to regulate MYC at the transcript level.

MYC transcript = MYC transcript by qPCR in K562 cells treated with JQ1; type: cell-based; conditions: 1 uM JQ1 for 6 h
Description: as §3, §4

ENO1 transcript = ENO1 transcript by qPCR in K562 cells treated with JQ1; type: cell-based; conditions: 1 uM JQ1 for 6 h
Description: as §3, §4

PGK1 transcript = PGK1 transcript by qPCR in K562 cells treated with JQ1; type: cell-based; conditions: 1 uM JQ1 for 6 h
Description: as §3, §4

ERRFI1 = conditions: HCT116 cells treated with JQ1, reprocessed RNA-seq data; cited from earlier work

| Compound | p53 protein level (p53 protein) | CDKN1A transcript level (CDKN1A transcript) | CDKN1A FISH fluorescence by flow cytometry (CDKN1A mRNA; HCT116 cells, versus control and inactive enantiomer) | CDKN1A FISH signal upon treatment (CDKN1A mRNA; stable TP53 knockout lines) | Effect on CDKN1A RNA abundance (barcode recovery from sorted populations) (CDKN1A RNA) | MYC protein level (MYC protein) | MYC transcript level (MYC transcript) | ENO1 transcript level (ENO1 transcript) | PGK1 transcript level (PGK1 transcript) | ERRFI1 levels (ERRFI1) |
| --- | --- | --- | --- | --- | --- | --- | --- | --- | --- | --- |
| COc1ccc(C2=N[C@@H](c3ccc(Cl)cc3)[C@@H](c3ccc(Cl)cc3)N2C(=O)N2CCNC(=O)C2)c(OC(C)C)c1 [Nutlin-3a] | stabilization of p53 protein | induction of CDKN1A transcript | higher fluorescence than either the control or inactive enantiomer | no induction of CDKN1A signal | activator of CDKN1A RNA abundance | – | – | – | – | – |
| Cc1sc2c(c1C)C(c1ccc(Cl)cc1)=N[C@@H](CC(=O)OC(C)(C)C)c1nnc(C)n1-2 [JQ1] | – | – | – | – | – | significantly downregulated | significantly downregulated | significantly downregulated | significantly downregulated | reduction in ERRFI1 levels |
